This is an account of results in patent US20260216347A1, “Substituted Imidazo-Based Compounds as Ligand Directed Degraders of IRAK3” (Celgene Corporation, priority 2022, published 2026).

The test deals with T1, IRAK3-ePL (Homo sapiens, UniProt Q9Y616).
T1 construct: expressed in transfected cells; host or cells: 293T CRBN OE/GSPT1 G575N KI cells, lentiviral transduction, puromycin selected
The test is described as follows: IRAK3-ePL overexpressing degradation assay (InCELL Hunter luminescence, dose response). The conditions noted are these: for IRAK3 ePL degradation Ymin: lowest percentage of target protein remaining following compound treatment; for DC50: read-out: IRAK3 ePL degradation EC50. The format is cell-based. Put shortly:
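Lenti-X 293T CRBN/GSPT1 G575N cells stably expressing IRAK3-ePL (5,000/well) treated overnight at 37° C with 10-point 3-fold dilutions from 10 μM, 0.2% DMSO. InCELL Hunter luminescence, background subtracted using Ataluren wells and normalized to DMSO; EC50 from four-parameter logistic fit.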

For `Cc1cc(-c2cnc(Nc3cnn(C4CCN(CCN5CCN(c6ccc(C7CCC(=O)NC7=O)cc6)C[C@H]5C)CC4)c3)c3nccn23)c(F)cc1F` (stereo partly drawn) [Compound 9, 3-(4-((R)-4-(2-(4-(4-((5-(2,4-difluoro-5-methylphenyl)imdazo [1,2-a]pyrazin-8-yl)amino)-1H-pyrazol-1-yl)piperidin-1-yl)ethyl)-3-methylpiperazin-1-yl)phenyl) piperidine-2,6-dione], the “IRAK3 ePL degradation Ymin” value amounted to 14% and the DC50 came to 0.5 nM.
On the same counts, the results for `Cc1cc(-c2cnc(Nc3cnn([C@H]4CC[C@H](CCN5CCN(c6ccc(C7CCC(=O)NC7=O)cc6)CC5)CC4)c3)c3nccn23)c(F)cc1F` (stereo partly drawn) [Compound 11, 3-(4-(4-(2-((trans)-4-(4-((5-(2,4-difluoro-5-methylphenyl)imidazo[1,2-a]pyrazin-8-yl)amino)-1H-pyrazol-1-yl)cyclohexyl)ethyl)piperazin-1-yl)phenyl)piperidine-2,6-dione] are 22% and 4 nM.
For the molecule `Cc1cc(-c2cnc(Nc3cnn(C4CCN(CCN5[C@H](C)CN(c6ccc(C7CCC(=O)NC7=O)cc6)C[C@@H]5C)CC4)c3)c3nccn23)c(F)cc1F` (stereo partly drawn) [Compound 13, 3-(4-((3S,5R)-4-(2-(4-(4-((5-(2,4-difluoro-5-methylphenyl)imdazo [1,2-a]pyrazin-8-yl)amino)-1H-pyrazol-1-yl)piperidin-1-yl)ethyl)-3,5-dimethylpiperazin-1-yl)phenyl) piperidine-2,6-dione], the “IRAK3 ePL degradation Ymin” value worked out at 13% and the DC50 was 0.86 nM.
As to `Cc1cc(-c2cnc(Nc3cnn(C4CCN(CCN5CCN(c6ccc(C7CCC(=O)NC7=O)cc6)CC5)CC4)c3)c3nccn23)c(F)cc1F` (stereo not shown) [Compound 8, 3-(4-(4-(2-(4-(4-((5-(2,4-difluoro-5-methylphenyl)imidazo[1,2-a]pyrazin-8-yl)amino)-1H-pyrazol-1-yl)piperidin-1-yl)ethyl)piperazin-1-yl)phenyl)piperidine-2,6-dione], the “IRAK3 ePL degradation Ymin” value was found to be 18% and the DC50 worked out at 0.5 nM.
On the same counts, the results for `Cc1cc(-c2cnc(Nc3cnn([C@H]4CCN(CCN5CCN(c6ccc(C7CCC(=O)NC7=O)cc6)C[C@H]5C)[C@@H](C)C4)c3)c3nccn23)c(F)cc1F` (stereo partly drawn) [Compound 35, 3-(4-((R)-4-(2-((2S,4S)-4-(4-((5-(2,4-difluoro-5-methylphenyl)imdazo [1,2-a]pyrazin-8-yl)amino)-1H-pyrazol-1-yl)-2-methylpiperidin-1-yl)ethyl)-3-methylpiperazin-1-yl)phenyl) piperidine-2,6-dione] are 24% and 0.63 nM.
`Cc1cc(-c2cnc(Nc3cnn(C4CCN(CCN5CCN(c6ccc([C@@]7(C)CCC(=O)NC7=O)cc6)CC5)CC4)c3)c3nccn23)c(F)cc1F` [Compound 77, (R)-3-(4-(4-(2-(4-(4-((5-(2,4-difluoro-5-methylphenyl)imdazo [1,2-a]pyrazin-8-yl)amino)-1H-pyrazol-1-yl)piperidin-1-yl)ethyl)piperazin-1-yl)phenyl)-3-methylpiperidine-2,6-dione]: the “IRAK3 ePL degradation Ymin” value is 27% and the DC50 was 1.1 nM.
On the same counts, the results for `Cc1cc(-c2cnc(Nc3cnn(C4CCN(CC(=O)N5CCN(c6ccc7c(c6)C(=O)N(C6CCC(=O)NC6=O)C7)CC5)CC4)c3)c3nccn23)c(F)cc1F` (stereo not shown) [Compound 18, 3-(6-(4-(2-(4-(4-((5-(2,4-difluoro-5-methylphenyl)imidazo[1,2-a]pyrazin-8-yl)amino)-1H-pyrazol-1-yl)piperidin-1-yl)acetyl)piperazin-1-yl)-1-oxoisoindolin-2-yl)piperidine-2,6-dione] are 22% and 9.7 nM.
Turning to `Cc1cc(-c2cnc(Nc3cnn(C4CCN(CC(=O)N5CCN(c6ccc7c(c6)C(=O)N(C6CCC(=O)NC6=O)C7=O)CC5)CC4)c3)c3nccn23)c(F)cc1F` (stereo not shown) [Compound 6, 5-(4-(2-(4-(4-((5-(2,4-difluoro-5-methylphenyl)imidazo[1,2-a]pyrazin-8-yl)amino)-1H-pyrazol-1-yl)piperidin-1-yl)acetyl)piperazin-1-yl)-2-(2,6-dioxopiperidin-3-yl)isoindoline-1,3-dione], the “IRAK3 ePL degradation Ymin” value came to 17% and the DC50 is 22 nM.
On the same counts, the results for `Cc1cc(-c2cnc(Nc3cnn(C4CCN(CC(=O)N5CCN(c6ccc7c(c6)CN(C6CCC(=O)NC6=O)C7=O)CC5)CC4)c3)c3nccn23)c(F)cc1F` (stereo not shown) [Compound 10, 3-(5-(4-(2-(4-(4-((5-(2,4-difluoro-5-methylphenyl)imidazo[1,2-a]pyrazin-8-yl)amino)-1H-pyrazol-1-yl)piperidin-1-yl)acetyl)piperazin-1-yl)-1-oxoisoindolin-2-yl)piperidine-2,6-dione] are 22% and 19 nM.
As to `Cc1cc(-c2cnc(Nc3cnn(C4CCN(CCN5CCN(c6ccc(C7CCC(=O)NC7=O)cc6)CC5)CC4)c3)c3nccn23)ccc1F` (stereo not shown) [Compound 33, 3-(4-(4-(2-(4-(4-((5-(4-fluoro-3-methylphenyl)imdazo [1,2-a]pyrazin-8-yl)amino)-1H-pyrazol-1-yl)piperidin-1-yl)ethyl)piperazin-1-yl)phenyl) piperidine-2,6-dione], the “IRAK3 ePL degradation Ymin” value is reported as 24% and the DC50 is 7.9 nM.
As to `Cc1cccc(-c2cnc(Nc3cnn(C4CCN(CC(=O)N5CCN(c6ccc7c(c6)CN(C6CCC(=O)NC6=O)C7=O)CC5)CC4)c3)c3nccn23)c1` (stereo not shown) [Compound 19, 3-(1-oxo-5-(4-(2-(4-(4-((5-(m-tolyl)imidazo[1,2-a]pyrazin-8-yl)amino)-1H-pyrazol-1-yl)piperidin-1-yl)acetyl)piperazin-1-yl)isoindolin-2-yl)piperidine-2,6-dione], the “IRAK3 ePL degradation Ymin” value is given as 18% and the DC50 is 12 nM.
`Cc1cc(-c2cnc(Nc3cnn([C@H]4CC[C@@H](CN5CCN(c6ccc(C7CCC(=O)NC7=O)cc6)CC5)CC4)c3)c3nccn23)c(F)cc1F` (relative stereo) [Compound 71, 3-(4-(4-(((cis)-4-(4-((5-(2,4-difluoro-5-methylphenyl)imidazo[1,2-a]pyrazin-8-yl)amino)-1H-pyrazol-1-yl)cyclohexyl)methyl)piperazin-1-yl)phenyl) piperidine-2,6-dione]: the “IRAK3 ePL degradation Ymin” value amounted to 29% and the DC50 worked out at 1.7 nM.
On the same counts, the results for `Cc1cccc(-c2cnc(Nc3cnn(C4CCN(CC(=O)N5CCN(c6ccc7c(c6)C(=O)N(C6CCC(=O)NC6=O)C7=O)CC5)CC4)c3)c3nccn23)c1` (stereo not shown) [Compound 1, 2-(2,6-dioxopiperidin-3-yl)-5-(4-(2-(4-(4-((5-(m-tolyl)imidazo[1,2-a]pyrazin-8-yl)amino)-1H-pyrazol-1-yl)piperidin-1-yl)acetyl)piperazin-1-yl)isoindoline-1,3-dione] are 31% and 39 nM.
On the same counts, the results for `Cc1cccc(-c2cnc(Nc3cnn(C4CCN(CCCCN5CCN(c6ccc(C7CCC(=O)NC7=O)cc6)CC5)CC4)c3)c3nccn23)c1` (stereo not shown) [Compound 3, 3-(4-(4-(4-(4-(4-((5-(m-tolyl)imidazo[1,2-a]pyrazin-8-yl)amino)-1H-pyrazol-1-yl)piperidin-1-yl)butyl)piperazin-1-yl)phenyl) piperidine-2,6-dione] are 15% and 3 nM.
